This is an account of results in article PMC3277506, “Extra-Renal Elimination of Uric Acid via Intestinal Efflux Transporter BCRP/ABCG2” (PLoS ONE, 2012).

Data set [1] can be described thus: Intestinal secretion of endogenous uric acid, in situ intestinal closed loop method, oxonate-treated rats. The following applies: 60 min, no inhibitor. In kind it is in vivo, rat. The method, then:
We evaluated intestinal secretion of endogenous uric acid according to the method described previously, with some modifications. Rats were anesthetized with 50% urethane and treated with oxonate by the same method as in the in vivo animal study described above. Intestinal closed loops were made at different segments: jejunum (10 cm), ileum (10 cm), and colon (3–5 cm). Phosphate-buffered solution (PB, 0.075 M NaH2PO4 - 0.075 M Na2HPO4, pH 6.5) or inhibitor-containing PB was injected into the intestinal loop. After 60 min, the remaining luminal content in each loop was washed out and collected for quantitation. Blood was obtained from the jugular vein at 1, 20, 40 and 60 min. Plasma was obtained by centrifugation and used for quantitation.
(§1) The following equation was used to calculate intestinal secretory clearance (µL/min/cm loop) and estimated total intestinal secretory clearance (CLintestine, estimated) (mL/min): [drawing 1] [drawing 2] [drawing 3] where A is the amount of uric acid secreted into the intestinal lumen of each loop for 60 min, L is the length of the intestine, and AUC is area under the plasma concentration-time curve.

For data set [2] the following is noted: humans; cited from earlier work.
For data set [3], the target named is T1, rMrp2 (Rattus norvegicus, UniProt Q63120).
T1 construct: purchased GenoMembrane Inc. (Yokohama, Japan); host or cells: Sf9 cells
The experiment in a line: [14C]uric acid uptake by rMrp2-expressing membrane vesicles. In kind it is biochemical. To be noted: [14C]uric acid 20 µM, 5 min, 37°C, 4 mM ATP or AMP. The method, then:
hBCRP/rBcrp, hMRP2/rMrp2, or hMDR1-expressing membrane vesicles prepared from Sf9 cells were purchased from GenoMembrane Inc. (Yokohama, Japan). Uptake experiments were conducted as described previously. Briefly, after a pre-incubation for 5 min at 37°C, membrane vesicles (50 µg protein/50 µL final reaction volume) were incubated for 5 min at 37°C in the presence of 4 mM ATP or AMP in assay buffer (1 M KCl, 1 M MgCl2, and 100 mM MOPS-Tris, pH 7.0) containing [^14C]uric acid (1 µCi/mL). The uptake reaction was terminated by adding 1 mL ice-cold washing buffer (1 M KCl, and 100 mM MOPS-Tris, pH 7.0) to the membrane solution, and the mixture was rapidly filtered through a nitrocellulose filter (0.45 µm pore size, Millipore, Bedford, MA). The filters were washed twice with 5 mL ice-cold washing buffer. The filters were dried and dissolved in Clearsol-I for quantitation of radioactivity.

Data set [4] can be described thus: Clearance of endogenous uric acid (urine, bile, estimated intestine) in oxonate-treated rats. It counts as in vivo, rat. How it is done:
(§2) Male Wistar rats (280±30 g body weight) used in the present study were treated with potassium oxonate, a uric acid oxidase (uricase) inhibitor. Oxonate-treated rats were established as described previously, [48]. Briefly, rats were anesthetized with 50% urethane (2 mL/kg) and infused with 0.9% NaCl, 0.5% oxonate and 4% mannitol solution from the femoral vein at the flow rate of 3 mL/hr. As a bolus, 0.9% NaCl, 1.5% oxonate and 4% mannitol solution was administered from the jugular vein at 6 mL/kg. After equilibration for 80 min, blood, urine and bile samples were collected at 20-min intervals. When [^14C]uric acid (2 µCi/rat) was used, it was intravenously injected from the jugular vein after oxonate treatment for 80 min. In order to suppress the uricolysis of [^14C]uric acid by intestinal flora, animals received orally non-absorbed antibiotics, polymyxin B, kanamycin, and vancomycin at daily doses of 50, 50 and 20 mg/kg, respectively, for 7 days before this animal study. Urine and bile were collected at 20-min intervals, and blood samples were drawn at 1, 5, 10, 20, 40, 60, 80, 100 and 120 min. Urine and bile were collected from bladder and bile ducts, respectively, and blood from the jugular vein. In mice, urine was collected for 24 hours by using metabolic cages (Natsume, Tokyo, Japan).
as §1
Concentrations of uric acid in plasma, urine, bile, and intestinal content were analyzed by means of HPLC. Briefly, 80 µL 0.41% HClO4 was added to 40 µL of sample and mixed well. The sample was kept 4°C for 30 min. An aliquot was centrifuged at 15,000 rpm for 5 min at 4°C to separate denatured proteins. […] Uric acid was detected at 284 nm. […]

The nature of data set [5]: Bidirectional transcellular transport of [14C]uric acid in Caco-2 cells. It counts as in vitro ADME, human. The following applies: human, Control (no inhibitor). How it is done:
Caco-2 cells were obtained from the American Type Culture Collection (Rockville, MD). Caco-2 cells were cultured in Dulbecco's modified Eagle's medium (D-MEM) (Invitrogen, Carlsbad, CA) supplemented with 10% (v/v) fetal bovine serum (Invitrogen), 100 units/mL benzylpenicillin, 100 µg/mL streptomycin, 1% (v/v) MEM non-essential amino acid solution (Invitrogen) at 37°C under an atmosphere of 5% CO2 in air. For bidirectional transport studies, Caco-2 cells were cultured on Transwell filter membrane inserts (BD Falcon, surface area 0.9 cm^2 and pore size 3 µm) at a density of 6.4×10^4 cells/cm^2 for 21 days before use for each experiment. […] Inhibitor was added to only apical side. Transport of [^14C]uric acid was measured in two directions, namely apical (AP)-to-basal (BL) and BL-to-AP directions. An aliquot of transport buffer was obtained from the donor side at 5 min for measurement of initial concentration, and from the receiver side at 30, 60, 90 and 120 min. Transport studies were performed at 37°C and pH 7.4.
The apparent permeability (Papp, cm/sec) of [^14C]uric acid across the cell monolayer was calculated using the following equation: [drawing 4] where Q is the amount of [^14C]uric acid transported over time t. Cd is the initial concentration in the donor side and A is the surface area of membrane.
A general note: Caco-2 monolayers are a common model of the intestinal barrier.

The nature of data set [6]: Recovery of [14C]uric acid after intravenous administration in oxonate-treated rats. It counts as in vivo. The following applies: percentage of dose; for dose excreted: male, Wistar, rat, iv, 2 µCi/rat. The method, then:
as §2

Where “and” joins values, the source holds several entries; their conditions need not be identical. Equal entries are not always repeated. Where two headings read alike, the source gives them in different places.

T1 sequence (Q63120 whole entry): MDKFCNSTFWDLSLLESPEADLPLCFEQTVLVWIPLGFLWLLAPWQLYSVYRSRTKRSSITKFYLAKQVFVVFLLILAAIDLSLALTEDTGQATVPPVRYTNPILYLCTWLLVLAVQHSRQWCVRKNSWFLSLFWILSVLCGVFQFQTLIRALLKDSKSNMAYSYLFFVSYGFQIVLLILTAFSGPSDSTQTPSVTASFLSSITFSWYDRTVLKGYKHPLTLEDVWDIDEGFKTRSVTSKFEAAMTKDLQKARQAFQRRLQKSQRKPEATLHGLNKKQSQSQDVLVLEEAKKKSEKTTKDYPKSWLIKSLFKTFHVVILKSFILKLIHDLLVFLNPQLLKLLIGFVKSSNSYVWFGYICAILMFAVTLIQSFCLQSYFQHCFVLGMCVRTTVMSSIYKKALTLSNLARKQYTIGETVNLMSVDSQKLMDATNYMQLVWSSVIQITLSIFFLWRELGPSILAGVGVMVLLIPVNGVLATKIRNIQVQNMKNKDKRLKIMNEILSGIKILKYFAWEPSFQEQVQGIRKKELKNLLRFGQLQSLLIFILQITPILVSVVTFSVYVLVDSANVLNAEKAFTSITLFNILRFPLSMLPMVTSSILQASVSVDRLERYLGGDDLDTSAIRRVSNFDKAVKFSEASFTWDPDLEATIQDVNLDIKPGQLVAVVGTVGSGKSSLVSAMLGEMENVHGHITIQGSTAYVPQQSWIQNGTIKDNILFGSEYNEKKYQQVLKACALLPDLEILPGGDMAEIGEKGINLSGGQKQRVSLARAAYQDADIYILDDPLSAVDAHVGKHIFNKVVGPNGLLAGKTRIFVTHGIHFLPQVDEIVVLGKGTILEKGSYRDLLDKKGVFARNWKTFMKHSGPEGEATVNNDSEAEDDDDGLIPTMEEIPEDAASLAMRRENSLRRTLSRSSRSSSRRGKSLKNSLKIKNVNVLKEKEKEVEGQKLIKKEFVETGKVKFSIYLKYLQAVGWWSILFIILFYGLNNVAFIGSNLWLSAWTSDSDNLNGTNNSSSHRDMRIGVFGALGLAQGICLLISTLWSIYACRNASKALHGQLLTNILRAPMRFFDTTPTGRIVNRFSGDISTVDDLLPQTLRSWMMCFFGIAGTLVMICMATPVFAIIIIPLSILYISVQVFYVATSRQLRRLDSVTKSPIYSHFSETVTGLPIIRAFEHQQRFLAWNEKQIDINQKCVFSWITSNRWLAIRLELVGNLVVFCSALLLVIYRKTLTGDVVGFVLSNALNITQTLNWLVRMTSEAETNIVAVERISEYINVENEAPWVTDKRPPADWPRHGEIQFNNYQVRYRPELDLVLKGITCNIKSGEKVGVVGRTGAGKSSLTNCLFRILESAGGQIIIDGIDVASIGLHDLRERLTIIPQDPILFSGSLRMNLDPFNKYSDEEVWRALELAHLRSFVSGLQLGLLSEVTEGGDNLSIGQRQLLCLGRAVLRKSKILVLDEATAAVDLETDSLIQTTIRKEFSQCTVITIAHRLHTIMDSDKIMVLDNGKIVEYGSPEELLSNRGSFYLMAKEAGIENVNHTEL

Broadly, the efflux ratio is the permeability from basolateral to apical divided by that in the opposite direction, in the common usage. `O=c1[nH]c(=O)c2[nH]c(=O)[nH]c2[nH]1` [uric acid]: the “Intestinal secretion clearance of endogenous uric acid” value in data set [1] (colon closed loop) is reported as 0.76±0.17 µL/min/cm loop; in data set [1] (ileum closed loop), 1.58±0.13 µL/min/cm loop; in data set [1] (jejunum closed loop), 0.49±0.03 µL/min/cm loop. Besides, the “Biliary clearance of uric acid” value in data set [2] is 0.1 to 0.3 mL/min. For the same compound, the “Uric acid concentration in bile” value in data set [2] was 1 to 2 mg/dL. Moreover, the “Urinary clearance of uric acid” value in data set [2] is 5.8 to 6.3 mL/min. Moreover, in data set [3], the “ATP-dependent uric acid uptake” value is listed as “Slight”. Further, in data set [4] (from closed loop clearance and intestinal length), the “CLintestine, estimated (total intestinal secretory clearance)” value is on record as 0.15 mL/min. Also, the CL renal in data set [4] (male, Wistar, rat, urine (relative to plasma AUC), up to 60 min, amount excreted / plasma AUC, read-out: CLrenal of endogenous uric acid) was 0.5 ± 0.06 mL/min. Also, the “CLbile of endogenous uric acid” value in data set [4] (up to 60 min, amount excreted / plasma AUC) is 0.02 mL/min and 0.02 ± 0.002 mL/min. For the same compound, the efflux ratio at 120 min in data set [5] (Caco-2, pH 7.4, BL-to-AP / AP-to-BL permeability) is 2.13 ± 0.19. Further, in data set [5] (Caco-2 monolayer, 37°C, pH 7.4, read-out: Permeability AP to BL), the Papp A→B at 120 min came to 8.1 ± 0.2 nm/s. Further, in data set [5] (Caco-2 monolayer, 37°C, pH 7.4, read-out: Permeability BL to AP), the Papp B→A at 120 min turned out to be 17.3 ± 1.1 nm/s. The dose excreted in data set [6] (bile + intestine, up to 120 min, read-out: Recovery of [14C]uric acid, Bile+Intestine) was 9.58%; in data set [6] (bile, up to 120 min, read-out: Recovery of [14C]uric acid, Bile) it was 0.68%; in data set [6] (urine, up to 120 min, read-out: Recovery of [14C]uric acid, Urine), 42.6%. For the same compound, in data set [6] (iv 2 µCi/rat, 2 hrs after administration, rough estimation from distribution volume and plasma concentration), the “Recovery of [14C]uric acid, Cp×Vd (remaining in the body)” value is recorded as 4.55%. Moreover, in data set [6] (iv 2 µCi/rat, up to 120 min), the “Recovery of [14C]uric acid, Intestine (luminal contents)” value is 8.90%. Moreover, in data set [6] (iv 2 µCi/rat, up to 120 min), the “Recovery of [14C]uric acid, Urine” value is 42.58%.
